Laboratory results as given in patent US20080050452A1, “METAL-CONTAINING FORMULATIONS AND METHODS OF USE” (priority 2006, published 2008).
Converted amounts (≈) assume the structure as drawn.

Experiments:
[1] = Compatibility of nanocrystalline silver with excipients; type: physicochemical; conditions: 10% aqueous solution of excipient mixed with nanocrystalline silver in glass vial, 40° C. overnight
Escherichia coli = assay: MIC assay; type: cell-based
Enterobacter cloacae = assay: MIC assay; type: cell-based; conditions: Ent. cloacae
[2] = Body weight in rat DNBS-induced colitis; type: in vivo, Sprague-Dawley rats; conditions: rats with DNBS-induced colitis, intracolonic or oral treatment
DNBS-induced colitis [3] = assay: Total IBD score in rat DNBS-induced colitis; type: in vivo, Sprague-Dawley rats
Text: Animals: Male Sprague-Dawley rats, weighing approximately 250-300 gm were purchased from Charles River Laboratories (Raleigh, N.C.). The animals were housed under standard conditions with free access to food and water. They were acclimatized for 2-3 days before commencing the experiments. The study protocol was approved by the Institutional Animal Care and Use Committees (IACUC).
Induction of ulcerative colitis: Colitis was produced according to published methods. Animals were anesthetized by intraperitoneal injection of 75 mg/kg of ketamine plus 5 mg/kg of xylazine. A single intracolonic injection of 120 mg/ml of dinitrobenzenesulfonic acid (DNBS) (Sigma Chemicals, St. Louis, Mo.) in 250 micro liter of 50% ethanol was administered through a Tom Cat catheter (Kendall Sovereign, Mansfield, Mass.) with a closed-end tip, connected to a 1 ml syringe and placed 7 cm proximal to the anus. Lubricant was applied to the tip of the catheter before injection, to protect from mucosal injury. After instillation of DNBS, 0.5 ml of air was insufflated and the catheter was removed.
Sulfasalazine (Sigma Chemicals, St Louis, Mo.), at a concentration of 120 mg/ml for intracolonic treatment and 30 mg/ml for oral treatment was used as the reference drug in all the experiments. Sulfasalazine was first dissolved in 0.1M NaOH at a concentration about 30-fold higher than the required final concentration, and then suspended in 1.5% PVA for oral dosing and 5.7% PVA for intracolonic dosing.
One group was not treated and served as no treatment group. Treatment began one day after administration of DNBS.
Macroscopic Observations: Body weight was recorded daily and the animals were examined for their physical appearance. After five days of treatment, animals were sacrificed. The colon was excised between the ileocecal junction and rectum, and opened longitudinally. After scoring of the consistency of the stool the colon was rinsed in normal saline, examined and thickness of the colonic wall and number and size of ulcers were scored. Stool consistency was graded on a scale of 0-3: 0=normal stool, well formed pellets rigid as normal; 1=loose stool, formed pellet with moisture, soft stool keeping in stool shape; 2=loose stool, stools that have abnormal form with much moisture, softer shapeless stool; 3=watery or bloody diarrhea.
Thickness of colonic wall was graded on a scale of 0-4: 0=normal, no thickness; 1=mild thickness in lower portion of the colon; 2=moderate thickness in localized area; 3=moderate thickness extending to the central portion of the colon; 4=severe thickness in the whole colon. Colonic ulceration was graded on a scale of 0-10: 0=no ulcers; 1=one small ulcer less than 2-3 mm; 2=one large ulcer more than 2-3 mm; 3=two large ulcerations more than 2-3 mm in diameter; 4=two or more sites of ulcerations extending 1 cm along the length; 5-10=when an area of ulceration extended more than 1 cm along the length of the colon, the score increases by 1 for each additional cm of involvement. The total IBD score, obtained by the sum of the scores of colonic ulcer, colon thickness and stool consistency for each animal, was calculated for each treatment group.
Statistical Analysis: The results are expressed as the mean ±SE. The statistical significance in the mean total IBD score, histopathological inflammation score, and the immunohistochemical staining of cytokines or MMP-9 was determined using Tukey-Kramer's multiple comparison tests following one-way analysis of variance (ANOVA). The data were calculated with the aid of Instat Graph Pad Software. Differences with a P value less than 0.05 were considered significant.
Methods: Colitis was induced in rats using DNBS as described in Example 25. Animals were treated intracolonically (250 μl of the test reagents) once a day for five days. […] Methods: Colitis was induced in rats using DNBS as described in Example 25. Animals were treated intracolonically (250 μl of the test reagents) once a day for five days.

DNBS-induced colitis [4] = assay: Histopathological inflammation score of colon, rat DNBS-induced colitis; type: in vivo, Sprague-Dawley rats; conditions: oral, 100 mg/kg, five days, vs placebo and untreated
Procedure: Histopathology: A piece of colonic tissue at 2-4 cm proximal to the anus was excised and fixed in 10% formalin and the sections were stained with hematoxylin and eosin. The remaining length of the colonic tissues was stored at −80° C. for subsequent biochemical assays. The histology slides were examined by a veterinary pathologist who was blinded to the treatment groups. The extent of microscopic mucosal damage of the colon was scored on scale of 0-5 as described with slight modification: 0=normal histological appearance; 1=histological damage limited to surface epithelium, mild infiltration of the submucosa; 2=focal ulceration and cell disruption limited to mucosa, abnormal appearance of colonic wall, mild infiltration of inflammatory cells; 3=focal, transmural inflammation and ulceration, with mild to moderate infiltration of inflammatory cells; 4=Extensive transmural ulceration and inflammation bordered by areas of normal mucosa, moderate infiltration of inflammatory cells; 5=extensive transmural ulceration and inflammation involving entire section from epithelium to serosa, severe infiltration of inflammatory cells.
Statistical Analysis: The results are expressed as the mean ±SE. […] The data were calculated with the aid of Instat Graph Pad Software. […]

IL-1β = assay: Immunohistochemical staining of colon, rat DNBS-induced colitis; type: in vivo; conditions: oral treatment five days
Procedure: (§1) Immunohistochemistry: A Universal Streptavidin/Biotin detection system (Thermo Shandon, Pittsburgh, Pa.) was used for immunohistochemical staining of formalin fixed, paraffin embedded biopsies of the colon. After dewaxing, and hydration, sections were treated with protein blocking agent to reduce non-specific binding of antibodies. The tissues were then incubated with rabbit anti-rat TNF-α, or mouse anti-rat IL-12 p70 antibodies (Biosource International, Inc, Camarillo, Calif.); rabbit anti-rat IL-1β (Serotec, Raleigh, N.C.) or rabbit anti-rat MMP-9 antibody (Chemicon International, Telecuma, Calif.) in 1% bovine serum albumin in phosphate buffered saline. Incubations with secondary antibodies, streptavidin/biotin, and chromogenic detection of peroxidase were performed according to the manufacturer's protocol. Sections were counterstained, dehydrated, mounted and examined. The intensity of the immuno-peroxidase staining was graded as described previously. Expression of cytokines was graded as: 0, no staining in the section; 1, less than 25% of the section; 2, 25-50% of the section; 3, 50-75% of the section; 4, >75% of the section with significant staining.

MMP-9 = assay: as above; type: in vivo; conditions: colonic tissues, oral treatment, vs placebo and no treatment
Procedure: as §1

TNF-α = assay: as above; type: in vivo; conditions: oral treatment five days
Procedure: as §1

Pseudomonas aeruginosa = assay: MIC assay; type: cell-based; conditions: solutions in 0.1 M lactate buffer pH 4.0
[5] = tested on: Staphylococcus epidermidis; assay: MIC assay; type: cell-based; conditions: S. epiderm (ATCC); solutions in 0.1 M lactate buffer pH 4.0
Streptococcus pyogenes = assay: MIC assay; type: cell-based; conditions: solutions in 0.1 M lactate buffer pH 4.0
Streptococcus pneumoniae = assay: MIC assay; type: cell-based; conditions: solutions in 0.1 M lactate buffer pH 4.0
Staphylococcus aureus = assay: MIC assay; type: cell-based; conditions: solutions in 0.1 M lactate buffer pH 4.0

## OCc1ccccc1 [Benzyl alcohol]
[1]
  Reaction with nanocrystalline silver: Grey/slightly red

## CCCCCCCCCCCCCCCCCCO [Cetearyl alcohol]
[1]
  Reaction with nanocrystalline silver: Light brown/green/black

## CCCCCCCCCCCCCCCCO [Cetyl alcohol]
[1]
  Reaction with nanocrystalline silver: Grey color - no discoloration

## CCCCCCCCCCCCCCCCCC(=O)OCC(O)CO (stereo not drawn) [Glycerol monostearate]
[1]
  Reaction with nanocrystalline silver: Brown discoloration

## CCCCCCCCCCCCCC(=O)OC(C)C [Isopropyl myristate]
[1]
  Reaction with nanocrystalline silver: Grey color - no discoloration

## COC(=O)c1ccc(O)cc1 [Methylparaben]
[1]
  Reaction with nanocrystalline silver: Brown discoloration

## CC(O)CO (stereo not drawn) [Propylene glycol]
[1]
  Reaction with nanocrystalline silver: Discoloration

## CCCOC(=O)c1ccc(O)cc1 [Propylparaben]
[1]
  Reaction with nanocrystalline silver: Green discoloration

## OO [Sample H2O2, hydrogen peroxide]
[1]
  Reaction with nanocrystalline silver: Brown discoloration after drying
Escherichia coli; E. coli, absence of catalase and superoxide dismutase (−)
  MIC: 31 µg/mL (≈ 911 µM)
Escherichia coli; E. coli, presence of catalase and superoxide dismutase (+)
  MIC: >500 µg/mL
Enterobacter cloacae; absence of catalase and superoxide dismutase (−)
  MIC: 63 µg/mL (≈ 1850 µM)
Enterobacter cloacae; presence of catalase and superoxide dismutase (+)
  MIC: >500 µg/mL

## O=C([O-])c1ccccc1.[Na+] [Sodium benzoate]
[1]
  Reaction with nanocrystalline silver: White precipitate

## CCCCCCCCCCCCCCCCCC(=O)O [Stearic acid]
[1]
  Reaction with nanocrystalline silver: Grey color - no discoloration

## CCOCCOCCO [Transcutol, diethylene glycol monoethyl ether]
[1]
  Reaction with nanocrystalline silver: Grey color - no discoloration

## O=C(O)c1cc(/N=N/c2ccc(S(=O)(=O)Nc3ccccn3)cc2)ccc1O [sulfasalazine, salicylazosulfapyridine]
[2]
  body weight change: started gaining body weight after one day of treatment
DNBS-induced colitis [3]; Example 27, intracolonic, 100 mg/kg
  total IBD score vs placebo: significantly reduced
DNBS-induced colitis [3]; Example 28, intracolonic, 100 mg/kg
  total IBD score vs placebo: significantly reduced
DNBS-induced colitis [3]; intracolonic, 100 mg/kg, five days
  total IBD score: Significant reduction
DNBS-induced colitis [4]
  histopathological inflammation score: significantly reduced
IL-1β
  expression of IL-1β (immunohistochemical staining): significantly reduced
MMP-9
  expression of MMP-9 (immunohistochemical staining): significantly reduced
TNF-α
  expression of TNF-α (immunohistochemical staining): significantly reduced

## PEG 400
[1]
  Reaction with nanocrystalline silver: Grey color - no discoloration

## Polyoxyl 40 stearate
[1]
  Reaction with nanocrystalline silver: Grey color - no discoloration

## Sodium parabens
[1]
  Reaction with nanocrystalline silver: Precipitation

## silver oxide [Ag2O]
DNBS-induced colitis [3]; Example 27, intracolonic 250 μl once a day for five days, 0.25% homogenized
  total IBD score vs placebo: unable to show significant reduction
DNBS-induced colitis [3]; Example 27, intracolonic 250 μl once a day for five days, 0.5% homogenized
  total IBD score vs placebo: unable to show significant reduction
DNBS-induced colitis [3]; Example 27, intracolonic 250 μl once a day for five days, 0.5% sonicated nanodispersion
  total IBD score vs placebo: significantly reduced
DNBS-induced colitis [3]; Example 28, intracolonic 250 μl once a day for five days, 0.5% sonicated nanodispersion
  total IBD score vs placebo: significantly reduced
DNBS-induced colitis [3]; Example 28, intracolonic 250 μl once a day for five days, 1.5% sonicated nanodispersion
  total IBD score vs placebo: significantly reduced
Pseudomonas aeruginosa; P. aerug (ATCC)
  MIC: 0.8 µg/mL
Pseudomonas aeruginosa; P. aerug. (clin.)
  MIC: 2 µg/mL
[5]
  MIC: 2 µg/mL
Streptococcus pyogenes; S. pyog (clin. 303)
  MIC: 2 µg/mL
Streptococcus pyogenes; S. pyog (clin. 304)
  MIC: 3 µg/mL
Streptococcus pneumoniae; S. pneumo (clin 314)
  MIC: 3 µg/mL
Streptococcus pneumoniae; S. pneumo (clin 315)
  MIC: 2 µg/mL
Escherichia coli; E. coli (ATCC), solutions in 0.1 M lactate buffer pH 4.0
  MIC: 0.8 µg/mL
Staphylococcus aureus; S. aureus (ATCC)
  MIC: 3 µg/mL
Staphylococcus aureus; S. aureus (clin.)
  MIC: 6 µg/mL
